# Measurements reported in patent US7858738B2, “Synthetic human peptides and pharmaceutical compositions comprising them for the treatment of systemic lupus erythematosus” (Yeda Research and Development Co., Ltd., priority 2001, dated 2010).
# Columns and labels:
# [1] = system: (NZB×NZW)F1 mice; assay: Treatment of established SLE-like disease in (NZB×NZW)F1 mice; format: in vivo; details: for anti-dsDNA autoantibody O.D. values: sera 1:1250, end of treatment, PBS-treated 0.586±0.1
# Description: Induction and treatment of experimental SLE. In order to induce experimental SLE, BALB/c mice were immunized with 1-2 μg of the human mAb 16/6Id and boosted 3 weeks later. For the prevention of experimental SLE, mice were given hCDR1 or hCDR3 (mCDR1 or revmCDR1 as control peptide in Example 12) intravenously (i.v.) or s.c. concomitant with the immunization, and were injected weekly thereafter for 5 weeks. Treatment of an established disease started three and a half months following disease induction with the 16/6Id, when clinical manifestations were already observed. In Example 12, mice received 10 weekly injections (i.v. or s.c.) of mCDR1 or revmCDR1 at a dose of 100 μg/mouse. Prevention and treatment of SLE-like disease in (NZB×NZW)F1 mice with the hCDR1 or mCDR1 peptide. For prevention of SLE, mice at the age of 2 months, before disease manifestations are observed, were injected s.c. with hCDR1 (or mCDR1 in Example 12, 250 μg/mouse) once a week for 10 weeks. To treat an established disease, mice at the age of 5-7 months were injected with hCDR1 (in Example 12, mCDR1 s.c., 250 μg/mouse) once a week for 10 weeks. Proliferative Responses. PBL were isolated from heparinized venous blood by Ficoll-Hypaque (Pharmacia) density-gradient centrifugation. All assays were performed, in triplicate, in flat-bottomed microtiter plates (Falcon, Becton Dickinson, Oxmard, Calif., USA) in which 2×10^5 PBL were cultured in enriched RPMI-1640 as described (Dayan et al., 2000). The PBL were exposed to various concentrations (0.1-40 μg/well) of the human anti-DNA 16/6Id mAb with and without the addition of the various CDR-based peptides at a concentration of at least 10-fold excess over that of the 16/6Id. Phytohemagglutinin (PHA; 2 μg/well) was used as a control for culture conditions at each experiment. The cultures were incubated in 7.5% CO2 at 37° C. for 6 days. Eighteen hours before the cells were harvested, [^3H]-thymidine (0.5μ Ci of 5 Ci/mmol) (Nuclear Research Center, Negev, Israel) was added to all cultures. Results are expressed as the mean thymidine incorporation in counts per minute (CPM) of triplicate culture±SD, or as stimulation index (S.I.; the ratio of mean CPM at the optimal concentration of the human 16/6Id to the mean CPM in the presence of medium alone). A S.I.≧2 was considered a positive response (Dayan et al., 2000). Inhibition (the ratio of mean CPM in the presence of the 16/6Id and various CDR-based peptides to the mean CPM with the 16/6Id without the CDR-based peptide) above 50% was considered positive. Induction of Cytokine Production. Mice that were immunized with the human 16/6Id mAb and either treated or not with the CDR-based peptide, were killed at different periods during or after treatment with the peptide. Splenocytes and lymph node cells (LNC) were harvested and incubated (5×10^6/ml) in the presence of the 16/6Id. Supernatants were collected after 48 and 72 h. Assessment of Cytokines in the Supernatants. Supernatants were collected 48 hours following the initiation of the cultures and stored at −70° C. Measurements of IL-2, IL-10, IFN-γ, and TNF-α were performed by ELISA by using the relevant standards, capture and detecting Abs (Pharmingen) according to the manufacturer's instructions. TGF-β was determined by an ELISA. Briefly, plates were coated with the recombinant human TGF-β1 sRIII/Fc chimera (R & D Systems Inc., Minneapolis, Minn., USA), and the second Ab used was the biotinylated anti-human TGF-β1 antibody (R & D Systems Inc.). The substrate solution used was TMB color Reagent (Helix Diagnostics, West Sacramento, Calif.), and enzyme activity was evaluated by using 570- and 630-nm filters. Detection of SLE-Associated Clinical and Pathological Manifestations. Proteinuria was measured semiquantitatively by using Combistix kit (Ames Division, Bayer Diagnostics, Newbury, U.K.). White blood cells (WBC, for leukopenia) were counted after a 10-fold dilution of heparinized blood in distilled water containing 1% acetic acid (vol/vol). […]
# [2] = system: BALB/c-derived LNC; assay: In vivo inhibition of proliferation of BALB/c LNC to the human 16/6Id mAb; design: species or system mice
# Description: Because our aim was to test the inhibitory capacity of the peptides based on the CDR of the human 16/6Id autoantibody, it was of importance to find out whether peptides hCDR1 and hCDR3 are capable of inhibiting the priming to the whole molecule of the human 16/6Id mAb. To this end, BALB/c and SJL mice were primed with the human 16/6Id mAb (2 μg/mouse) in CFA intradermally in the hind footpads. […] Ten days following immunization, the mice were sacrificed and their LNCs were tested in vitro for their ability to proliferate to different concentrations (0.1-10 μg/well) of the human anti-DNA 16/6Id mAb.
# The results are presented as maximum % inhibition of the proliferation to the immunizing human 16/6Id mAb of lymph node cells of mice immunized and treated with the peptides hCDR1 and hCDR3 as compared with mice that were immunized with the 16/6Id mAb but were not treated with the peptides.
# In another experiment, BALB/c mice were immunized with 1 μg human 16/6Id in CFA, intradermally in the hind footpads, and either were injected with hCDR1 s.c., 300 μg/mouse in PBS, or were not further treated. Ten days later the mice were sacrificed and their LNC were tested for their ability to proliferate in vitro to the human 16/6Id. Thus, popliteal LNCs (0.5×10^6) were incubated in the presence of various concentrations (0.1-10 μg/well) of the human anti-DNA 16/6Id mAb. At the end of 4 days incubation, ^3H-thymidine was added to the cultures for the last 18 hours of incubation. Cells were then harvested and radioactivity counted.
# [3] = age 7 months, 10 weeks, 100 μg/mouse or 300 μg/mouse
sequence,measurement,setting,value
"GYYWSWIRQPPGKGEEWIG (Human) [hCDR1, 19-mer peptide based on the CDR1 of the heavy chain of the human 16/6Id mAb]",anti-dsDNA autoantibody O.D. values,[1]; 50 μg/mouse s.c. weekly for 10 weeks from age 5 and a half months,0.27±0.1 O.D.
same,number and intensity of immune complexes in kidney sections,"[1]; 100 μg dose, mice sacrificed at 9 months, FIGS. 11A-11D",reduced the number of immune complexes as well as their intensity
same,anti-dsDNA autoantibody O.D. values,[1]; 100 μg/mouse s.c. weekly for 10 weeks from age 5 and a half months,0.37±0.1 O.D.
same,anti-dsDNA autoantibody O.D. values,[1]; 200 μg/mouse s.c. weekly for 10 weeks from age 5 and a half months,0.29±0.1 O.D.
same,Proteinuria g/L ± SEM,"[1]; 300 μg/mouse s.c. weekly for 10 weeks at the age of 7 months, untreated 4.80 ± 2.56",1.08 ± 0.38 g/L
same,Proteinuria g/L ± SEM,"[1]; 300 μg/mouse, age 7 months, following treatment No 5, untreated 2.65 ± 1.76",0.61 ± 0.23 g/L
same,Proteinuria g/L ± SEM,"[1]; 300 μg/mouse, age 7 months, following treatment No 7, untreated 3.89 ± 2.73",0.65 ± 0.32 g/L
same,Proteinuria g/L ± SEM,"[1]; 300 μg/mouse, age 7 months, following treatment No 9, untreated 7.55 ± 3.95",1.02 ± 0.39 g/L
same,Immune Complex Deposits ± SEM,"[1]; 300 μg/mouse, age 7 months, intensity 0=no ICD to 3=severe and extremely intense ICD, untreated 2.57 ± 0.29, p = 0.035",1.44 ± 0.41
same,Proteinuria g/L ± SEM,"[1]; 400 μg/mouse at the age of 6 months, untreated 4.99 ± 2.53",0.77 ± 0.32 g/L
same,Immune Complex Deposits ± SEM,"[1]; 400 μg/mouse, age 6 months, intensity score 0-3, untreated 2 ± 0.29, p = 0.05",1.42 ± 0.19
same,anti-DNA antibody titers in sera,"[1]; 7-month old mice, 300 μg s.c. weekly for 10 weeks",mild reduction
same,anti-dsDNA autoantibody titers,"[1]; 50, 100 and 200 μg/mouse s.c. weekly for 10 weeks from age 5 and a half months",moderate reduction
same,anti-DNA autoantibody titers,[1]; [3],moderate reduction
same,proteinuria in comparison to the PBS-treated group,[1]; [3],reduction
same,kidney disease,"[1]; age 7 months, 10 weeks, 100 or 300 μg/mouse, more significant effect with 300 μg",ameliorated
same,kidney disease,"[1]; ten-week treatment, 50 μg dose less efficient than 100 and 200 μg",reduced significantly
same,% inhibition of proliferation,"[2]; 50 μg/mouse s.c. in PBS, 16/6Id mAb 0.1 μg/well",98%
same,% inhibition of proliferation,"[2]; 50 μg/mouse s.c. in PBS, 16/6Id mAb 5 μg/well",73%
same,% inhibition of proliferation,"[2]; 50 μg/mouse s.c. in PBS, 16/6Id mAb 10 μg/well",64%
same,% inhibition of proliferation,"[2]; 300 μg/mouse s.c. in PBS, 16/6Id mAb 0.1 μg/well",47%
same,% inhibition of proliferation,"[2]; 300 μg/mouse s.c. in PBS, 16/6Id mAb 1 μg/well",66%
same,% inhibition of proliferation,"[2]; 300 μg/mouse s.c. in PBS, 16/6Id mAb 5 μg/well",76%
same,% inhibition of proliferation,"[2]; 300 μg/mouse s.c. in PBS, 16/6Id mAb 10 μg/well",62%
same,% Inhibition of the proliferation of BALB/c-derived LNC to the human 16/6Id mAb,"[2]; maximum % inhibition, 200 μg/mouse s.c. in PBS concomitant with priming",88%
